Laboratory results reported in patent publication US20260083851A1 (AVILAR THERAPEUTICS, INC., priority 2022, published 2026).

What follows are compounds tested against T1, ASGP receptor (biotinylated ASGPR) (Homo sapiens, UniProt P07306). Conditions: SPR, Biacore 8K, 25° C.; Table 1A; read-out: ASGPR KD.
T1 construct: biotin (biotinylated)
T1 sequence (P07306 1-291): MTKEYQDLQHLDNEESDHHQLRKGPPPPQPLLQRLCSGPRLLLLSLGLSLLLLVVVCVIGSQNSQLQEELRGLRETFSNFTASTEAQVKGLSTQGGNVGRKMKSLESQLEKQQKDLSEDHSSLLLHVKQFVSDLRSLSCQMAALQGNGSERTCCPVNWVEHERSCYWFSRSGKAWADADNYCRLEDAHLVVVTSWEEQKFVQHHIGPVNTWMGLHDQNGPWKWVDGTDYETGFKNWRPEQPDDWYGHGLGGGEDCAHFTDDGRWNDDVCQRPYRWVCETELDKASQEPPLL
Assay type: binding
`O=C(NC[C@H]1OC[C@H](Nc2cncc(C(F)(F)F)n2)[C@@H](O)[C@H]1O)c1n[nH]c2ccccc12` [A44, N-(((2R,3R,4R,5S)-3,4-dihydroxy-5-((6-(trifluoromethyl)pyrazin-2-yl)amino)tetrahydro-2H-pyran-2-yl)methyl)-1H-indazole-3-carboxamide] gave a Kd of under 10 µM. Work on `O=C(NC[C@H]1OC[C@H](Nc2cncc(C(F)(F)F)n2)[C@@H](O)[C@H]1O)c1cnc2[nH]cnc2c1` [A79, N-(((2R,3R,4R,5S)-3,4-dihydroxy-5-((6-(trifluoromethyl)pyrazin-2-yl)amino)tetrahydro-2H-pyran-2-yl)methyl)-3H-imidazo[4,5-b]pyridine-6-carboxamide] yielded a Kd of under 10 µM. `O=C(O)COCCOCC(=O)NC[C@H]1OC[C@H](Nc2cccc(C(F)(F)F)n2)[C@@H](O)[C@H]1O` [A103, 2-(2-(2-((((2R,3R,4R,5S)-3,4-dihydroxy-5-((6-(trifluoromethyl)pyridin-2-yl)amino)tetrahydro-2H-pyran-2-yl)methyl)amino)-2-oxoethoxy)ethoxy)acetic acid] gave a Kd of under 10 µM. For `O=C(NC[C@H]1OC[C@H](Nc2cncc(C(F)(F)F)n2)[C@@H](O)[C@H]1O)c1cncnc1` [A25, N-(((2R,3R,4R,5S)-3,4-dihydroxy-5-((6-(trifluoromethyl)pyrazin-2-yl)amino)tetrahydro-2H-pyran-2-yl)methyl)pyrimidine-5-carboxamide], the Kd was under 10 µM. `O=C(O)c1ccc2c(c1)C(F)(F)c1cc(C(=O)NC[C@H]3OC[C@H](Nc4cncc(C(F)(F)F)n4)[C@@H](O)[C@H]3O)ccc1-2` [A52] gave a Kd of under 10 µM. For `O=C(NC[C@H]1OC[C@H](Nc2cncc(C(F)(F)F)n2)[C@@H](O)[C@H]1O)Nc1ccc(C(=O)O)cc1` [A113, 4-(3-(((2R,3R,4R,5S)-3,4-dihydroxy-5-((6-(trifluoromethyl)pyrazin-2-yl)amino)tetrahydro-2H-pyran-2-yl)methyl)ureido)benzoic acid], the Kd was under 10 µM. `O=C(NC[C@H]1OC[C@H](Nc2cncc(C(F)(F)F)n2)[C@@H](O)[C@H]1O)c1ccncc1` [A80, N-(((2R,3R,4R,5S)-3,4-dihydroxy-5-((6-(trifluoromethyl)pyrazin-2-yl)amino)tetrahydro-2H-pyran-2-yl)methyl)isonicotinamide] gave a Kd of under 10 µM. For `O=C(O)COCCOCC(=O)NC[C@H]1OC[C@H](Nc2nccc(C(F)(F)F)n2)[C@@H](O)[C@H]1O` [A106, 2-(2-(2-((((2R,3R,4R,5S)-3,4-dihydroxy-5-((4-(trifluoromethyl)pyrimidin-2-yl)amino)tetrahydro-2H-pyran-2-yl)methyl)amino)-2-oxoethoxy)ethoxy)acetic acid], the Kd was under 10 µM. `O=C(NC[C@H]1OC[C@H](Nc2cncc(C(F)(F)F)n2)[C@@H](O)[C@H]1O)c1ncc2cc[nH]c2n1` [A78, N-(((2R,3R,4R,5S)-3,4-dihydroxy-5-((6-(trifluoromethyl)pyrazin-2-yl)amino)tetrahydro-2H-pyran-2-yl)methyl)-7H-pyrrolo[2,3-d]pyrimidine-2-carboxamide] gave a Kd of under 10 µM. `O=C(O)CCCCCNC(=O)NC[C@H]1OC[C@H](Nc2cncc(C(F)(F)F)n2)[C@@H](O)[C@H]1O` [A115, 6-(3-(((2R,3R,4R,5S)-3,4-dihydroxy-5-((6-(trifluoromethyl)pyrazin-2-yl)amino)tetrahydro-2H-pyran-2-yl)methyl)ureido)hexanoic acid] was tested, and the Kd was under 10 µM. In the case of `NC1CC2(C1)CC(NC(=O)C[C@H]1OC[C@H](Nc3cncc(C(F)(F)F)n3)[C@@H](O)[C@H]1O)C2` (stereo partly drawn) [A92, N-(6-aminospiro[3.3]heptan-2-yl)-2-((2R,3R,4R,5S)-3,4-dihydroxy-5-((6-(trifluoromethyl)pyrazin-2-yl)amino)tetrahydro-2H-pyran-2-yl)acetamide], the Kd is reported as under 10 µM. `O=C(NC[C@H]1OC[C@H](Nc2cncc(C(F)(F)F)n2)[C@@H](O)[C@H]1O)c1cnco1` [A48, N-(((2R,3R,4R,5S)-3,4-dihydroxy-5-((6-(trifluoromethyl)pyrazin-2-yl)amino)tetrahydro-2H-pyran-2-yl)methyl)oxazole-5-carboxamide] showed a Kd of under 10 µM. Compound `O=C(NC[C@H]1OC[C@H](Nc2cncc(C(F)(F)F)n2)[C@@H](O)[C@H]1O)c1ccnnc1` [A27, N-(((2R,3R,4R,5S)-3,4-dihydroxy-5-((6-(trifluoromethyl)pyrazin-2-yl)amino)tetrahydro-2H-pyran-2-yl)methyl)pyridazine-4-carboxamide] has a Kd of under 10 µM. `N#CC[C@H]1OC[C@H](Nc2cncc(C(F)(F)F)n2)[C@@H](O)[C@H]1O` [A21, 2-((2R,3R,4R,5S)-3,4-dihydroxy-5-((6-(trifluoromethyl)pyrazin-2-yl)amino)tetrahydro-2H-pyran-2-yl)acetonitrile] was tested, and the Kd was under 10 µM. `COC(=O)c1cnc(C(=O)NC[C@H]2OC[C@H](Nc3cncc(C(F)(F)F)n3)[C@@H](O)[C@H]2O)nc1` [A72, methyl 2-((((2R,3R,4R,5S)-3,4-dihydroxy-5-((6-(trifluoromethyl)pyrazin-2-yl)amino)tetrahydro-2H-pyran-2-yl)methyl)carbamoyl)pyrimidine-5-carboxylate] was tested, and the Kd was under 10 µM.

Same assay, conditions: SPR, Biacore 8K, 25° C.; Table 1B; read-out: ASGPR Kd
`OC[C@H]1OC[C@H](Oc2nccc(C(F)(F)F)n2)[C@@H](O)[C@H]1O` [A140, (2R,3R,4S,5S)-2-(hydroxymethyl)-5-((4-(trifluoromethyl)pyrimidin-2-yl)oxy)tetrahydro-2H-pyran-3,4-diol] gave a Kd of under 10 µM. With `O[C@@H]1[C@H](O)[C@@H](Nc2cccc(OC(F)(F)F)n2)CO[C@@H]1COc1cccc(OC(F)(F)F)n1` [A144, (2R,3R,4R,5S)-5-((6-(trifluoromethoxy)pyridin-2-yl)amino)-2-(((6-(trifluoromethoxy)pyridin-2-yl)oxy)methyl) tetrahydro-2H-pyran-3,4-diol] the Kd was under 10 µM. `COc1cccc(N[C@H]2CO[C@H](CO)[C@H](O)[C@@H]2O)n1` [A164, (2R,3R,4R,5S)-2-(hydroxymethyl)-5-((6-methoxypyridin-2-yl)amino)tetrahydro-2H-pyran-3,4-diol] showed a Kd of under 10 µM.

Same assay, conditions: SPR, Biacore 8K, 25° C.; Table 1C; read-out: ASGPR KD
`O[C@@H]1[C@H](O)[C@@H](Oc2cccc(C(F)(F)F)n2)CO[C@@H]1CN1Cc2ccccc2C1` [A274] showed a Kd of under 10 µM. `O[C@@H]1[C@H](O)[C@@H](Nc2cncc(C(F)(F)F)n2)CO[C@@H]1Cc1nnc(-c2ccccc2)o1` [A209, (2R,3R,4R,5S)-2-((5-phenyl-1,3,4-oxadiazol-2-yl)methyl)-5-((6-(trifluoromethyl)pyrazin-2-yl)amino)tetrahydro-2H-pyran-3,4-diol] was tested, and the Kd was under 10 µM. `O=C(O)c1ccc(CN2CCN(C[C@H]3OC[C@H](Nc4cncc(C(F)(F)F)n4)[C@@H](O)[C@H]3O)CC2)cc1F` [A204, 4-((4-(((2R,3R,4R,5S)-3,4-dihydroxy-5-((6-(trifluoromethyl)pyrazin-2-yl)amino)tetrahydro-2H-pyran-2-yl)methyl)piperazin-1-yl)methyl)-2-fluorobenzoic acid] showed a Kd of under 10 µM. `O=C(O)CN1CCC(N2CCN(C[C@H]3OC[C@H](Nc4cncc(C(F)(F)F)n4)[C@@H](O)[C@H]3O)CC2)CC1` [A206, 2-(4-(4-(((2R,3R,4R,5S)-3,4-dihydroxy-5-((6-(trifluoromethyl)pyrazin-2-yl)amino)tetrahydro-2H-pyran-2-yl)methyl)piperazin-1-yl)piperidin-1-yl)acetic acid] showed a Kd of under 10 µM. For `O[C@@H]1[C@H](O)[C@@H](Oc2cccc(C(F)(F)F)n2)CO[C@@H]1COc1ccccn1` [A287], the Kd was under 10 µM. `O=C(O)c1ccc(CN2CCN(C[C@H]3OC[C@H](Nc4cncc(C(F)(F)F)n4)[C@@H](O)[C@H]3O)CC2)nn1` [A205, 6-((4-(((2R,3R,4R,5S)-3,4-dihydroxy-5-((6-(trifluoromethyl)pyrazin-2-yl)amino)tetrahydro-2H-pyran-2-yl)methyl)piperazin-1-yl)methyl)pyridazine-3-carboxylic acid] was tested, and the Kd was under 10 µM. `O[C@@H]1[C@H](O)[C@@H](Nc2cccc(C(F)(F)F)n2)CO[C@@H]1COc1ccc(Br)cc1` [A236, (2R,3R,4R,5S)-2-((4-bromophenoxy)methyl)-5-((6-(trifluoromethyl)pyridin-2-yl)amino)tetrahydro-2H-pyran-3,4-diol] showed a Kd of under 10 µM. Compound `O=C1c2occc2CN1C[C@H]1OC[C@H](Oc2cccc(C(F)(F)F)n2)[C@@H](O)[C@H]1O` [A290] has a Kd of under 10 µM. Compound `C[C@H]1O[C@H](CCCO)[C@H](Oc2cccc(C(F)(F)F)n2)[C@@H](O)[C@H]1O` [A318] has a Kd of under 10 µM. For `O[C@@H]1[C@H](O)[C@@H](Oc2cccc(C(F)(F)F)n2)CO[C@@H]1CN1CCN(c2ccncn2)CC1` [A284], the Kd was under 10 µM. `O[C@@H]1[C@H](O)[C@@H](Nc2cccc(C(F)(F)F)n2)CO[C@@H]1CN1CCCCC1` [A241] was tested, and the Kd was under 10 µM. Work on `O[C@@H]1[C@H](O)[C@@H](Nc2cccc(C(F)(F)F)n2)CO[C@@H]1CN1CCC1` [A279] yielded a Kd of under 10 µM. With `O=C1c2ccccc2CN1C[C@H]1OC[C@H](Oc2cccc(C(F)(F)F)n2)[C@@H](O)[C@H]1O` [A265] the Kd was under 10 µM.

Same assay, conditions: SPR, Biacore 8K, 25° C.; Table 1D; read-out: ASGPR KD
With `C[C@H]1O[C@H](C(=O)Nc2cn[nH]c2)[C@H](Nc2cccc(C(F)(F)F)n2)[C@@H](O)[C@H]1O` [A424] the Kd was under 10 µM. With `O[C@@H]1[C@@H](Nc2nccc(C(F)(F)F)n2)CNC[C@@H]1O` [A370] the Kd was 10 to 100 µM. `O=C(OCc1ccccc1)N1C[C@H](O)[C@H](O)[C@@H]([S@@+]([O-])c2cccc(C(F)(F)F)n2)C1` [A354] was tested, and the Kd was 10 to 100 µM. For `CN1C[C@H](Nc2cncc(C(F)(F)F)n2)[C@@H](O)[C@@H](O)C1` [A363], the Kd was under 10 µM. In the case of `O=C(O)c1ccc(-c2ccc(CN3C[C@H](Nc4cncc(C(F)(F)F)n4)[C@@H](O)[C@@H](O)C3)cc2)cc1` [A387], the Kd is reported as under 10 µM.
